One test addresses T1, E. coli TEM1 β-lactamase (Escherichia coli, UniProt P62593).
T1 construct: The β-lactamases are isolated from bacterial strains resistant to penicillins and cephalosporins; endogenous in cells; host or cells: E. coli 250HT21 (soluble fraction of French-press lysate)
Description: β-lactamase inhibiting activity on isolated enzyme (Nitrocefin hydrolysis), TEM1. The settings on record: 5 min pre-incubation, 100 μM Nitrocefin, pH 7.0, 37° C., mean of at least 2 experiments, read-out: IC50 enzyme inhibition. Format: biochemical. On the procedure:
(§1) A. Preparation of Tem-1 and P99 β-lactamases
(§2) The β-lactamases are isolated from bacterial strains resistant to penicillins and cephalosporins (Tem 1 and P99 are respectively produced by E. coli 250HT21 and E.Cloacae 293 HT6).
(§3) The bacteria are cultured in 37g/l brain-heart infusion (DIFCO), at 37° C. They are harvested at the end of the exponential phase, cooled and centrifuged. The bacterial residues are dissolved in 50 mM sodium phosphate buffer pH 7.0 and again centrifuged. The bacteria are dissolved in two volumes of this same buffer and lysed using a French-Press held at 4° C. After centrifuging 1 h at 100 000g, at 4° C., the supernatants containing the soluble fraction of the bacterial extracts are collected and frozen to −80° C.
(§4) B. Determination β-lactamase Activity
(§5) The method uses Nitrocefin (OXOID) as substrate, a chromogenic cephalosporin, whose hydrolysis product by β-lactamases is red and absorbed at 485 nm.
(§6) β-lactamase activity is determined kinetically by measuring the variation in absorbance at 485 nm resulting from hydrolysis of the substrate on a plate spectrophotometer (Spectra Max Plus by Molecular Devices). Experiments are conducted at 37° C. The quantity of enzyme was normalized and measurements are taken at initial velocity.
(§7) C. Determination of β-Lactamase Inhibiting Activity
(§8) The measurements are taken with pre-incubation of the enzyme and of the inhibitor (5 min). The products are assayed at 11 concentrations. The reaction mixture contains 100 μM Nitrocefin and 50 mM sodium phosphate buffer, pH 7.0, and 0.1 mg/mL bovine serum albumin.
(§9) Hydrolysis velocities are measured with and without inhibitor. The inhibitor concentration is determined which inhibits 50% of the Nitrocefin hydrolysis reaction by the enzyme (IC50). Data is processed using GraFit software (Erithacus Software). The IC50 values are the mean of the IC50s obtained in at least 2 different experiments.

The target of test [1] is T2, E. cloacae P99 β-lactamase (Enterobacter cloacae, UniProt P05364).
T2 construct: The β-lactamases are isolated from bacterial strains resistant to penicillins and cephalosporins; endogenous in cells; host or cells: E. cloacae 293HT6 (soluble fraction of French-press lysate)
Briefly: β-lactamase inhibiting activity on isolated enzyme (Nitrocefin hydrolysis), P99. Format: biochemical. The settings on record: 5 min pre-incubation, 100 μM Nitrocefin, pH 7.0, 37° C., mean of at least 2 experiments, read-out: IC50 enzyme inhibition. The procedure:
as §1, §2, §3, §4, §5, §6, §7, §8, §9

For a further test, the system named is E. coli 250BE6 (TEM3). Briefly: MIC of ceftazidime alone or with inhibitor, micro-dilution in liquid medium, strain 250BE6. It counts as cell-based. The settings on record: 24 h; for MIC of CAZ in combination with inhibitor (CAZ-Inhibitor): E. coli 250BE6 TEM3, inhibitor at constant 4 μg/mL. On the procedure:
(§10) II/ The evidenced β-lactamase inhibiting activity potentialises the antibacterial activity of antibiotics of β-lactam type, and therefore leads to a synergic effect, as is shown by the results given below which express the minimum inhibitory concentration in vitro (MIC in μg/ml), against a certain number of pathogenic microorganisms, and of combinations of ceftazidime (<<CAZ >>) with formula (I) compounds at a concentration of 4 mg/l. Operations are as follows using the so-called micro-dilution method in liquid medium.
(§11) A series of β-lactam concentrations are prepared in the presence of a constant concentration (4 mg/l) of the product to be assayed, each is then seeded with various bacterial strains.
(§12) After 24-hour incubation in an oven at 37° C. growth inhibition is assessed via the lack of any bacterial growth, which allows determination of the minimum inhibitory concentrations (MICs) for each strain, expressed in milligrams/l.
For orientation: Dilution methods test growth across graded concentrations, often in twofold steps.

The subject of test [2] is E. cloacae 293HT6 (P99 AmpC). Briefly: MIC of ceftazidime alone or with inhibitor, micro-dilution in liquid medium, strain 293HT6. Format: cell-based. To be noted: 24 h; for MIC of CAZ in combination with inhibitor (CAZ-Inhibitor): inhibitor at constant 4 μg/mL. On the procedure: as §10, §11, §12
The next test concerns E. cloacae 293HT4 (AmpC). Briefly: MIC of ceftazidime alone or with inhibitor, micro-dilution in liquid medium, strain 293HT4. Format: cell-based. To be noted: 24 h; for MIC of CAZ in combination with inhibitor (CAZ-Inhibitor): inhibitor at constant 4 μg/mL. On the procedure:
as §10, §11, §12

The subject of test [3] is C. freundii 261GR6 (AmpC). Briefly: MIC of ceftazidime alone or with inhibitor, micro-dilution in liquid medium, strain 261GR6. It counts as cell-based. To be noted: 24 h; for MIC of CAZ in combination with inhibitor (CAZ-Inhibitor): inhibitor at constant 4 μg/mL. On the procedure: as §10, §11, §12
The mark [4] stands for this setting: Enterobacter cloacae, no inhibitor, read-out: MIC CAZ alone.

Each structure is given as a SMILES string. Where a name gives a salt, the structure may show the parent alone.

Broadly, the IC50 is the concentration that inhibits the measured activity by half. One may read the MIC as the smallest concentration in the dilution series that meets the test's criterion for growth inhibition.

T2 sequence (P05364 21-381): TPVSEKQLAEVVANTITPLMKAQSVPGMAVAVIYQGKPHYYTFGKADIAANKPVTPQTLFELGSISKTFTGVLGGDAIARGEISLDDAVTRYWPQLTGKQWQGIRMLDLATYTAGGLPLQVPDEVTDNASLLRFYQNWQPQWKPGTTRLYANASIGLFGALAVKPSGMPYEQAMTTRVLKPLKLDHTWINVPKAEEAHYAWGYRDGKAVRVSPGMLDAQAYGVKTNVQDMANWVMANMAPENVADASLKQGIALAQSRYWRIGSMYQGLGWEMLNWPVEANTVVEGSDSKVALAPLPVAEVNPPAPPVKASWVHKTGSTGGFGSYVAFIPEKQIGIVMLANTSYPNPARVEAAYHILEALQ
T1 sequence (P62593 24-286 limits assumed): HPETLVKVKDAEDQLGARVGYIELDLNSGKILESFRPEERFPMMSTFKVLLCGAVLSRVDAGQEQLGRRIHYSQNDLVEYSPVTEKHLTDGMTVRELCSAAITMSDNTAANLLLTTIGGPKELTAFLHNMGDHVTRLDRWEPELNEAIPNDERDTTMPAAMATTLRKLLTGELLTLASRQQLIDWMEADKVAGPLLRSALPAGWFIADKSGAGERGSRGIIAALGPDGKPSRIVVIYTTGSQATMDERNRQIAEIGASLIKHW

On to `NC(=O)[C@@H]1CC[C@@H]2CN1C(=O)N2OC(F)C(=O)O` (mixture of isomers) [Example 2, trans-(1R,2S,5R)-6-(1-fluoro-2-hydroxy-2-oxoethoxy)-7-oxo-1,6-diazabicyclo[3.2.1]octane-2-carboxamide], for which the half-maximal inhibitory concentration (IC50) is 2 nM on E. coli TEM1 β-lactamase and 4.6 µM in test [1]. In addition, the “MIC of CAZ in combination with inhibitor (CAZ-Inhibitor)” value (“MIC of CAZ … (CAZ-Inhibitor)” below) with E. coli 250BE6 (TEM3) was 0.25 µg/mL; in test [2], 8 µg/mL; with E. cloacae 293HT4 (AmpC) it was 8 µg/mL; in test [3], 4 µg/mL.

For `CC(C)(O/N=C(\C(=O)N[C@@H]1C(=O)N2C(C(=O)[O-])=C(C[n+]3ccccc3)CS[C@H]12)c1csc(N)n1)C(=O)O` [CAZ, ceftazidime, reference compound], the MIC in the test with E. coli 250BE6 (TEM3) (Escherichia coli, read-out: MIC CAZ alone) was over 32 µg/mL; in test [2] (setting [4]) it was over 32 µg/mL; in the test on E. cloacae 293HT4 (AmpC) (setting [4]), over 32 µg/mL; in test [3] (Citrobacter freundii, no inhibitor, read-out: MIC CAZ alone) it was over 32 µg/mL.

On to `NC(=O)[C@@H]1CC[C@@H]2CN1C(=O)N2OCC(=O)O` [Example 1, trans-(1R,2S,5R)-6-(2-hydroxy-2-oxoethoxy)-7-oxo-1,6-diazabicyclo[3.2.1]octane-2-carboxamide, reference compound], for which the IC50 at E. coli TEM1 β-lactamase worked out at 720 nM; in test [1], 54 µM. The “MIC of CAZ … (CAZ-Inhibitor)” value in the test on E. coli 250BE6 (TEM3) was 2 µg/mL; in test [2], over 32 µg/mL; in the test with E. cloacae 293HT4 (AmpC) it was over 32 µg/mL; in test [3] it was over 32 µg/mL.

Take `NC(=O)[C@@H]1CC[C@@H]2CN1C(=O)N2OC(F)(F)C(=O)O` [Example 3, Sodium salt of trans-(1R,2S,5R)-6-(1,1-difluoro-2-hydroxy-2-oxoethoxy)-7-oxo-1,6-diazabicyclo[3.2.1]octane-2-carboxamide]: the figures for the IC50 (on E. coli TEM1 β-lactamase; in test [1]) were 0.8 nM and 2.2 µM, respectively. The “MIC of CAZ … (CAZ-Inhibitor)” value came out at 0.25 µg/mL in the test on E. coli 250BE6 (TEM3), 1 µg/mL in test [2], 0.5 µg/mL in the test with E. cloacae 293HT4 (AmpC) and 1 µg/mL in test [3].

The values are drawn from patent US20110046102A1, “AZABICYCLIC COMPOUNDS, PREPARATION THEREOF AND USE OF SAME AS DRUGS, ESPECIALLY BETA-LACTAMASE INHIBITORS” (Novexel, priority 2008, published 2011).
